For 116 compounds, LC retention time results are on record in the RepoRT retention time repository.

A short description of the data set: Agilent ZORBAX 300 SB-C18, 150 × 1 mm, 3.5 µm; A: water + 0.01% heptafluorobutyric acid; B: acetonitrile + 0.01% heptafluorobutyric acid; gradient (min/%B) 0/0 100/90. Conditions: stereoisomer not certain.
In the case of `CCc1cnccn1`, the LC retention time was 8.09 min. The same measure for `Cc1cnc[nH]1`: 5.66 min.

In the case of `CC(C)c1ccc(N)cc1`, the LC retention time was 9 min.

For `Cc1ccc(C(=O)Cn2c(=N)n(C)c3ccccc32)cc1`, the LC retention time came to 10.6 min. `Cc1ccc(NC(=S)NC2CC(C)(C)NC(C)(C)C2)c(C)c1`: the LC retention time came to 9.61 min. Take `CC(C)CC(=O)Nc1cccc(C(=O)O)c1`: the LC retention time amounted to 10.1 min. The same measure for `CNC(=S)Nc1ccc2c(c1)CCCC2`: 12.5 min; for `Cc1nc2ccc(N)cc2nc1C`: 7.33 min. The same measure for `NC(=O)CNC(=O)c1ccc2ccccc2n1`: 8.66 min; for `O=c1[nH][nH]c(=O)n1-c1ccc2c(c1)OCO2`: 6.9 min. The same measure for `C[N+](C)(C)c1ccccc1`: 7 min; for `CN(C)c1ccc(CCN)cc1`: 7.22 min; for `CC(=O)Oc1cccc(C(=O)NN2C(=O)c3ccccc3C2=O)c1`: 11.1 min. Regarding `c1ccc(-c2cccc(-c3ccccn3)n2)nc1`, the LC retention time worked out at 9.29 min.

Regarding `NC(CC(=O)O)c1ccc(C(=O)O)cc1` (stereo unspecified), the LC retention time came to 6.32 min. Take `OC(Cn1cccc1)c1ccccc1` (stereo unspecified): the LC retention time is 11.8 min. Under `CN(C)CCC(=O)c1ccc2ccccc2c1` stands 9.4 min; under `CC(C)NC(C)C`, 7.12 min.

As to `Cc1cnc(C)cn1`, the LC retention time came to 7.49 min.

In the case of `O=c1[nH]c2cc[nH]c(=O)c2[nH]1`, the LC retention time was determined as 2.62 min. The same measure for `Cc1ccnc(=O)[nH]1`: 2.97 min. Under `COc1ccc(N2CC(C(=O)Nc3c(C)cc(C)cc3C)CC2=O)cc1` (stereo unspecified) stands 12.5 min.

Take `O=C(NCCO)C(=O)NC(c1ccccc1)c1ccccc1`: the LC retention time was 11.2 min. The same measure for `O=CNC1CCCCC1`: 8.38 min; for `S=C(Nc1cccnc1)N1CCc2ccccc21`: 9.72 min; for `NCC(=O)c1ccccc1`: 7.35 min. The same measure for `Cc1cc(C)c2cccc(C)c2n1`: 8.65 min; for `COC(=O)CC1CN=C(N2CCCCC2)NC1=O` (stereo unspecified): 7.95 min. The same measure for `CC(=O)C=C(N)c1ccccc1`: 10.4 min; for `Nc1ccc2cc3ccc(N)cc3nc2c1`: 9.09 min.

As to `CC(C)(N)CO`, the LC retention time came out at 4.39 min. With `Cc1ccc(N2CC(C(=O)O)CC2=O)cc1C` (stereo unspecified), the LC retention time was found to be 10.2 min. The same measure for `CNCc1ccccc1`: 7.43 min.

Turning to `Nc1ccc(NC(=O)Nc2ccc(N)cc2)cc1`, the LC retention time was determined as 7.24 min. The same measure for `CCOc1ccc(C(c2c[nH]c3ccccc23)c2c[nH]c3ccccc23)cc1`: 17.2 min; for `COc1cc2c(cc1OC)NC(=O)C2`: 7.73 min; for `NC(=O)C1(N2CCCCC2)CCN(C(=O)c2ccccc2)CC1`: 7.76 min. As to `Nc1ccccc1NC(=O)Nc1ccccc1N`, the LC retention time came out at 8.05 min. Turning to `C[N+](C)(C)CCOC(=O)c1ccccc1`, the LC retention time worked out at 8.36 min. Under `Cc1ccc(-c2ccccc2)nc1C` stands 8.93 min. Under `CCCNC` stands 5.85 min. The same measure for `O=c1[nH]c2ccccc2c(=O)n1-c1cccnc1`: 8.1 min; for `CC(=O)c1[nH]c(C)c(C(=O)c2ccccc2)c1C`: 11.6 min; for `CCc1cccnc1`: 6.88 min. For `CNCCCCCCN(C)CCCCCCNC`, the LC retention time was found to be 7.6 min. The same measure for `CC(C)=NNc1nccc2ccccc12`: 10.7 min.

For `CCN(Cc1ccncc1)C(=S)NCCc1ccccc1`, the LC retention time came to 10.2 min. The same measure for `Cc1cc(N)c(N)cc1C`: 7.98 min; for `Nc1ccccc1C(=O)NN=Cc1cccc2ccccc12`: 13.3 min; for `CN1c2ccccc2CCc2cc(C=O)ccc21`: 16.3 min.

On to `CCCCN1CNC(=S)NC1`, for which the LC retention time was determined as 7.45 min. The same measure for `CC1(C)CC(NC(=S)NC2CCCCC2)CC(C)(C)N1`: 9.89 min. The same measure for `CCOC(=O)C1=CN(c2cc(C)ccc2C)C=C(C(=O)OCC)C1c1cccc(C)c1`: 21.5 min; for `CCNC1(c2cccs2)CCCCC1`: 9.19 min; for `CCc1ccccc1NCC(=O)O`: 11.1 min. Turning to `O=C1c2ccccc2C(=O)c2cc(C(=O)N3CCC(c4ccccc4)CC3)ccc21`, the LC retention time was 17 min. The same measure for `Nc1cccc(-c2cc3ccccc3oc2=O)c1`: 10.4 min; for `CN(C)CCN(C)C`: 7.04 min.

With `Cc1cc(=O)[nH]c(C(C)C)n1`, the LC retention time came to 6.9 min.

Consider `O=C(NCCc1ccc2oc3ccccc3c2c1)C1CCCCC1`, for which the LC retention time came to 16.3 min. Under `Cc1cccc[n+]1CC(=O)c1ccccc1` stands 8.36 min. The same measure for `CC(C)c1ccc(C=NNC(N)=S)cc1`: 12.8 min.

Take `CCc1ccc(NCCC(=O)c2ccc(C(C)(C)C)cc2)cc1`: the LC retention time is 16.5 min. Under `CC(C)CCCC(C)N` (stereo unspecified) stands 9.28 min; under `Nc1ccc[nH]c1=O`, 2.98 min. Under `c1cn[nH]n1` stands 2.1 min; under `NC(=O)CCN1CCNCC1`, 6.16 min. As for `CC(=O)Nc1ccccn1`, the LC retention time came to 6.5 min.

As to `CC1CNC(C)CN1` (stereo unspecified), the LC retention time was determined as 6.62 min. The same measure for `CC1=NN(c2ccc(C)cc2)C(=O)C1C=O` (stereo unspecified): 8.94 min; for `Cc1ccc(-c2nn(CC(=O)Nc3cccnc3)c(=O)c3ccccc23)cc1`: 11.3 min; for `CN(C)C(=O)c1ccc(N=CNc2ccc(C(=O)N(C)C)cc2)cc1`: 9.51 min. The same measure for `O=c1ccoc2ccccc12`: 9.31 min; for `CN1CCc2cccc3c2C1Cc1ccc(O)c(O)c1-3` (stereo unspecified): 8.8 min; for `S=C1NCN(Cc2ccccc2)CN1`: 8.28 min. Under `CN(CCO)C(=O)Nc1ccccc1` stands 7.92 min; under `CC(=O)CC(C)(C)N`, 6.26 min. `CC1(c2ccccc2)OCOC1=CC[N+](C)(C)C` (stereo unspecified): the LC retention time is 9.45 min.

Consider `O=C1CCCc2c1[nH]c1ccc(C3CCCCC3)cc21`, for which the LC retention time is 18.7 min. The same measure for `O=C(O)C1Cc2ccccc2CN1` (stereo unspecified): 6.54 min. Under `Nc1ccc2oc3c(c2c1)CCCC3` stands 9.57 min; under `CNCCOc1ccccc1`, 8.08 min. Under `COc1ccc(NC(=O)c2ccc(C)cc2)c(OC)c1` stands 14.2 min.

For `CC(=O)Nc1ccc(C(=O)NCc2ccco2)cc1`, the LC retention time turned out to be 8.96 min. Under `Cc1ccc(C=NNC(N)=S)cc1` stands 10.8 min.

With `Nc1ccc(N2CCCC2=O)cc1`, the LC retention time is 7.31 min.

For the compound `CN1C(=O)C(CC(=O)NC2CCCCC2)N(C)C1=O` (stereo unspecified), the LC retention time amounted to 8.55 min. Under `N=C(N)N=Nc1ccc(O)cc1` stands 7.38 min. The same measure for `CC(C)(C)c1ccc(C2Nc3ccccc3C(=O)N2c2ccccc2)cc1` (stereo unspecified): 16.7 min; for `CCCCCCC=CC(C)=O`: 16.2 min.

As to `Cc1cc(=O)n(-c2ccc(C(=O)O)cc2)[nH]1`, the LC retention time came to 8.05 min.

For `CCOC(=O)c1cnc2ccccc2n1`, the LC retention time was determined as 10.7 min. Take `CCCCCCCCC(N)=O`: the LC retention time amounted to 12.4 min.

As for `CCOC(=O)c1ccc(NC(=O)C2CC(=O)N(C3CCCCC3)C2)cc1` (stereo unspecified), the LC retention time was 13.2 min. Under `NCCCCCCNCCCCCCN` stands 7.37 min.

For `Cn1c(=O)cc(C(=O)O)[nH]c1=O`, the LC retention time turned out to be 1.57 min. The same measure for `CC(=O)C(=C1NC(C)(C)Cc2cc(C)c(C)cc21)c1ccccc1`: 17.6 min. In the case of `CSC1=NCCN1`, the LC retention time amounted to 5.98 min.

Take `O=C(CCc1ccccc1)NNC(=S)NCc1ccccc1`: the LC retention time was 12.4 min. The same measure for `CCNC(=S)NCCc1c[nH]c2ccccc12`: 11.2 min; for `COC(=O)C1C(O)CCC2CN3CCc4c([nH]c5ccccc45)C3CC21` (stereo unspecified): 9.64 min; for `Cc1ccccc1CN`: 7.83 min. The same measure for `Cc1ccc(-n2c(C)cc(C=CC(=O)O)c2C)cc1`: 14.4 min; for `Cc1ccc(C(C)C)c(OCCN)c1`: 10.2 min; for `Cc1cc[n+](CCc2ccccc2)cc1C`: 9.48 min. For `Cc1cn(C2CC(O)C(CO)O2)c(=O)[nH]c1=O` (stereo unspecified), the LC retention time was 8.97 min. As for `Cc1ccccc1Nc1nc(Nc2ccccc2C)c2ccccc2n1`, the LC retention time was found to be 12.5 min. In the case of `CC(=O)C1CCC2C3CC(C)C4=CC(=O)CCC4(C)C3C(O)CC12C` (stereo unspecified), the LC retention time amounted to 14.8 min. Turning to `COC(=O)CCc1ccc(C)c(N)c1`, the LC retention time was 9.03 min. Take `Cc1ccc(CNC(=S)Nc2ccccc2)n1C`: the LC retention time is 13.1 min.

Regarding `CNC(=S)N1CCCCC1`, the LC retention time stood at 8.86 min. Under `COc1ccc(NC(=O)c2ccc3c(c2)NC(=O)CO3)cc1OC` stands 9.62 min; under `COc1ccc(-c2ccccc2)cc1N`, 11.6 min. Under `CCC(C)C1(CC)C(=O)NC(=O)NC1=O` (stereo unspecified) stands 9.71 min; under `Cc1ccc(C=C2CN(C)CC(=Cc3ccc(C)cc3C)C2=O)c(C)c1`, 13.1 min.

`COc1cc(OC)c2cc[nH]c2c1`: the LC retention time was 11.1 min.
